This is an account of results in patent US20240132431A1, “METHOD FOR ALKYLATING ACIDIC FUNCTIONAL GROUP” (Chugai Seiyaku Kabushiki Kaisha, priority 2021, published 2024).

The target in the experiment is T1, Bcl-2 protein (Recombinant Human Bcl-2 Protein) (Homo sapiens, UniProt P10415).
T1 construct: purchased Novus NBP2-34889
Put plainly: Binding evaluation of mixture library compounds to Bcl-2 using AS-MS (affinity selection mass spectrometry). As to conditions: AS-MS on the mixture of 1200 library compounds, ASMS Ratio(%)=(A−C)/B×100; for ASMS ratio (%) n = 1: replicate n = 1; for ASMS ratio (%) n = 2: replicate n = 2. Put shortly: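 Pooled library of ~1200 compounds ([…] each, final) incubated with recombinant human Bcl-2 (20 μM final) in Tris-HCl pH 7.4, NaCl, Tween-20, DTT buffer, dark, 23° C., 1 h. Bound fraction recovered by SEC spin column, organic extraction, reversed-phase LC/MS. ASMS Ratio (%) = (A−C)/B×100 versus protein-free standard and SEC blank.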

T1 sequence (P10415 whole entry): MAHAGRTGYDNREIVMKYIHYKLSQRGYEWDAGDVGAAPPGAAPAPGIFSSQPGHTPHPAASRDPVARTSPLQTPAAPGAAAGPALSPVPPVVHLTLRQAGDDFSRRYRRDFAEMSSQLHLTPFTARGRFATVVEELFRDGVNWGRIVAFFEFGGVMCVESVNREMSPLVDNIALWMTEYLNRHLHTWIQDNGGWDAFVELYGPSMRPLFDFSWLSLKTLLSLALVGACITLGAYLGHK

In the case of `CCOc1cccc(-c2cc(CN3CCN(c4ccc(C(=O)N(C)CC56CC7CC(CC(C7)C5)C6)nn4)CC3)cc(OCC)c2)c1` [B3A081-01, N-(1-Adamantylmethyl)-6-[4-[[3-ethoxy-5-(3-ethoxyphenyl)phenyl]methyl]piperazin-1-yl]-N-methylpyridazine-3-carboxamide], the “ASMS ratio (%) n = 1” value is reported as 13.4% and the “ASMS ratio (%) n = 2” value is recorded as −14.2%.

With `CCOc1cncc(-c2cc(CN3CCN(c4ccc(C(=O)N(C)CC56CC7CC(CC(C7)C5)C6)nn4)CC3)cc(OCC)c2)c1` [B3A082-01, N-(1-Adamantylmethyl)-6-[4-[[3-ethoxy-5-(5-ethoxypyridin-3-yl)phenyl]methyl]piperazin-1-yl]-N-methylpyridazine-3-carboxamide], the “ASMS ratio (%) n = 1” value is −0.9% and the “ASMS ratio (%) n = 2” value amounted to 4.4%.

As to `CCOc1cccc(-c2cc(CN3CCN(c4ccc(C(=O)N(C)CC56CC7CC(CC(C7)C5)C6)nn4)CC3)cc(OC(C)C)c2)c1` [B3A083-01, N-(1-Adamantylmethyl)-6-[4-[[3-(3-ethoxyphenyl)-5-propan-2-yloxyphenyl]methyl]piperazin-1-yl]-N-methylpyridazine-3-carboxamide], the “ASMS ratio (%) n = 1” value was determined as 3.9% and the “ASMS ratio (%) n = 2” value is recorded as −18.6%.

`CCOc1cncc(-c2cc(CN3CCN(c4ccc(C(=O)N(C)CC56CC7CC(CC(C7)C5)C6)nn4)CC3)cc(OC(C)C)c2)c1` [B3A084-01, N-(1-Adamantylmethyl)-6-[4-[[3-(5-ethoxypyridin-3-yl)-5-propan-2-yloxyphenyl]methyl]piperazin-1-yl]-N-methylpyridazine-3-carboxamide]: the “ASMS ratio (%) n = 1” value is on record as −17.6% and the “ASMS ratio (%) n = 2” value was −7.4%.

As to `CCOc1cccc(-c2cc(OC)c(CN3CCN(c4ccc(C(=O)N(C)CC56CC7CC(CC(C7)C5)C6)nn4)CC3)c(OC)c2)c1` [B3A085-01, N-(1-Adamantylmethyl)-6-[4-[[4-(3-ethoxyphenyl)-2,6-dimethoxyphenyl]methyl]piperazin-1-yl]-N-methylpyridazine-3-carboxamide], the “ASMS ratio (%) n = 1” value was determined as 5.3% and the “ASMS ratio (%) n = 2” value is −7.1%.

Consider `CCOc1cncc(-c2cc(OC)c(CN3CCN(c4ccc(C(=O)N(C)CC56CC7CC(CC(C7)C5)C6)nn4)CC3)c(OC)c2)c1` [B3A086-01, N-(1-Adamantylmethyl)-6-[4-[[4-(5-ethoxypyridin-3-yl)-2,6-dimethoxyphenyl]methyl]piperazin-1-yl]-N-methylpyridazine-3-carboxamide], for which the “ASMS ratio (%) n = 1” value is reported as −2.7% and the “ASMS ratio (%) n = 2” value was −1.9%.

With `CCOc1cccc(-c2cc(CN3CCN(c4ccc(C(=O)N(C)CC56CC7CC(CC(C7)C5)C6)nn4)CC3)cc(C(F)(F)F)c2)c1` [B3A087-01, N-(1-Adamantylmethyl)-6-[4-[[3-(3-ethoxyphenyl)-5-(trifluoromethyl)phenyl]methyl]piperazin-1-yl]-N-methylpyridazine-3-carboxamide], the “ASMS ratio (%) n = 1” value is recorded as 0.4% and the “ASMS ratio (%) n = 2” value was 1.4%.

For the molecule `CCOc1cncc(-c2cc(CN3CCN(c4ccc(C(=O)N(C)CC56CC7CC(CC(C7)C5)C6)nn4)CC3)cc(C(F)(F)F)c2)c1` [B3A088-01, N-(1-Adamantylmethyl)-6-[4-[[3-(5-ethoxypyridin-3-yl)-5-(trifluoromethyl)phenyl]methyl]piperazin-1-yl]-N-methylpyridazine-3-carboxamide], the “ASMS ratio (%) n = 1” value stood at 2.5% and the “ASMS ratio (%) n = 2” value is 2.4%.

As for `CCOc1cccc(-c2cc(CN3CCN(c4ccc(C(=O)N(C)CC56CC7CC(CC(C7)C5)C6)nn4)CC3)cc(OC(F)(F)F)c2)c1` [B3A089-01, N-(1-Adamantylmethyl)-6-[4-[[3-(3-ethoxyphenyl)-5-(trifluoromethoxy)phenyl]methyl]piperazin-1-yl]-N-methylpyridazine-3-carboxamide], the “ASMS ratio (%) n = 1” value is recorded as −5.5% and the “ASMS ratio (%) n = 2” value is −7.2%.

For the molecule `CCOc1cncc(-c2cc(CN3CCN(c4ccc(C(=O)N(C)CC56CC7CC(CC(C7)C5)C6)nn4)CC3)cc(OC(F)(F)F)c2)c1` [B3A090-01, N-(1-Adamantylmethyl)-6-[4-[[3-(5-ethoxypyridin-3-yl)-5-(trifluoromethoxy)phenyl]methyl]piperazin-1-yl]-N-methylpyridazine-3-carboxamide], the “ASMS ratio (%) n = 1” value is 5.8% and the “ASMS ratio (%) n = 2” value is given as −0.2%.

`CCOc1cccc(-c2ccc(CN3CCN(c4ccc(C(=O)N(C)CC56CC7CC(CC(C7)C5)C6)nn4)CC3)c3ccccc23)c1` [B3A091-01, N-(1-Adamantylmethyl)-6-[4-[[4-(3-ethoxyphenyl)naphthalen-1-yl]methyl]piperazin-1-yl]-N-methylpyridazine-3-carboxamide]: the “ASMS ratio (%) n = 1” value was −1.0% and the “ASMS ratio (%) n = 2” value was −16.5%.

For the molecule `CCOc1cncc(-c2ccc(CN3CCN(c4ccc(C(=O)N(C)CC56CC7CC(CC(C7)C5)C6)nn4)CC3)c3ccccc23)c1` [B3A092-01, N-(1-Adamantylmethyl)-6-[4-[[4-(5-ethoxypyridin-3-yl)naphthalen-1-yl]methyl]piperazin-1-yl]-N-methylpyridazine-3-carboxamide], the “ASMS ratio (%) n = 1” value was 1.1% and the “ASMS ratio (%) n = 2” value is −1.9%.

On to `CCOc1cccc(-c2csc(CN3CCN(c4ccc(C(=O)N(C)CC56CC7CC(CC(C7)C5)C6)nn4)CC3)c2)c1` [B3A093-01, N-(1-Adamantylmethyl)-6-[4-[[4-(3-ethoxyphenyl)thiophen-2-yl]methyl]piperazin-1-yl]-N-methylpyridazine-3-carboxamide], for which the “ASMS ratio (%) n = 1” value is reported as −3.8% and the “ASMS ratio (%) n = 2” value worked out at 0.0%.

For the molecule `CCOc1cncc(-c2csc(CN3CCN(c4ccc(C(=O)N(C)CC56CC7CC(CC(C7)C5)C6)nn4)CC3)c2)c1` [B3A094-01, N-(1-Adamantylmethyl)-6-[4-[[4-(5-ethoxypyridin-3-yl)thiophen-2-yl]methyl]piperazin-1-yl]-N-methylpyridazine-3-carboxamide], the “ASMS ratio (%) n = 1” value was 3.7% and the “ASMS ratio (%) n = 2” value worked out at 0.5%.

Take `CCOc1cccc(C#Cc2ccccc2CN2CCN(c3ccc(C(=O)N(C)CC45CC6CC(CC(C6)C4)C5)nn3)CC2)c1` [B3A095-01, N-(1-Adamantylmethyl)-6-[4-[[2-[2-(3-ethoxyphenyl)ethynyl]phenyl]methyl]piperazin-1-yl]-N-methylpyridazine-3-carboxamide]: the “ASMS ratio (%) n = 1” value is −4.9% and the “ASMS ratio (%) n = 2” value was −3.5%.

Consider `CCOc1cncc(C#Cc2ccccc2CN2CCN(c3ccc(C(=O)N(C)CC45CC6CC(CC(C6)C4)C5)nn3)CC2)c1` [B3A096-01, N-(1-Adamantylmethyl)-6-[4-[[2-[2-(5-ethoxypyridin-3-yl)ethynyl]phenyl]methyl]piperazin-1-yl]-N-methylpyridazine-3-carboxamide], for which the “ASMS ratio (%) n = 1” value is given as 7.7% and the “ASMS ratio (%) n = 2” value came to 2.4%.

Regarding `CCOc1cccc(-c2ccc(C(C)N3CCN(c4ccc(C(=O)N(C)CC56CC7CC(CC(C7)C5)C6)cc4)CC3)cc2)c1` (stereo not shown) [B3A097-01, N-(1-Adamantylmethyl)-4-[4-[1-[4-(3-ethoxyphenyl)phenyl]ethyl]piperazin-1-yl]-N-methylbenzamide], the “ASMS ratio (%) n = 1” value came to 1.8% and the “ASMS ratio (%) n = 2” value is reported as −5.9%.

For the molecule `CCOc1cncc(-c2ccc(C(C)N3CCN(c4ccc(C(=O)N(C)CC56CC7CC(CC(C7)C5)C6)cc4)CC3)cc2)c1` (stereo not shown) [B3A098-01, N-(1-Adamantylmethyl)-4-[4-[1-[4-(5-ethoxypyridin-3-yl)phenyl]ethyl]piperazin-1-yl]-N-methylbenzamide], the “ASMS ratio (%) n = 1” value is 0.6% and the “ASMS ratio (%) n = 2” value is reported as 3.0%.

As for `CCOc1cccc(-c2ccc(C(C)N3CCN(c4ccc(C(=O)N(C)CC56CC7CC(CC(C7)C5)C6)cc4)CC3)c(F)c2)c1` (stereo not shown) [B3A099-01, N-(1-Adamantylmethyl)-4-[4-[1-[4-(3-ethoxyphenyl)-2-fluorophenyl]ethyl]piperazin-1-yl]-N-methylbenzamide], the “ASMS ratio (%) n = 1” value is reported as −2.6% and the “ASMS ratio (%) n = 2” value was determined as 25.2%.

As to `CCOc1cncc(-c2ccc(C(C)N3CCN(c4ccc(C(=O)N(C)CC56CC7CC(CC(C7)C5)C6)cc4)CC3)c(F)c2)c1` (stereo not shown) [B3A100-01, N-(1-Adamantylmethyl)-4-[4-[1-[4-(5-ethoxypyridin-3-yl)-2-fluorophenyl]ethyl]piperazin-1-yl]-N-methylbenzamide], the “ASMS ratio (%) n = 1” value was −39.8% and the “ASMS ratio (%) n = 2” value stood at 0.0%.

Take `CCOc1cccc(-c2csc(C(=O)N3CCN(c4ccc(C(=O)N(CC)CC)nn4)CC3)c2)c1` [B4J001-01, 6-[4-[4-(3-Ethoxyphenyl)thiophene-2-carbonyl]piperazin-1-yl]-N,N-diethylpyridazine-3-carboxamide]: the “ASMS ratio (%) n = 1” value amounted to 0.0% and the “ASMS ratio (%) n = 2” value turned out to be 0.0%.

With `CCOc1cncc(-c2csc(C(=O)N3CCN(c4ccc(C(=O)N(CC)CC)nn4)CC3)c2)c1` [B4J002-01, 6-[4-[4-(5-Ethoxypyridin-3-yl)thiophene-2-carbonyl]piperazin-1-yl]-N,N-diethylpyridazine-3-carboxamide], the “ASMS ratio (%) n = 1” value is on record as −2.7% and the “ASMS ratio (%) n = 2” value was 2.1%.

As for `CCOc1cccc(-c2ccc(C(=O)N3CCN(c4ccc(C(=O)N(CC)CC)nn4)CC3)cc2C)c1` [B4J003-01, 6-[4-[4-(3-Ethoxyphenyl)-3-methylbenzoyl]piperazin-1-yl]-N,N-diethylpyridazine-3-carboxamide], the “ASMS ratio (%) n = 1” value worked out at 0.0% and the “ASMS ratio (%) n = 2” value came out at 0.0%.
